Patent US20240409523A1, “SUGAR AMIDES AND MIXTURES THEREOF” (Clariant International Ltd, priority 2021, published 2024)

Assays:
Assay type in all cases: cell-based
[1] = tested on: Serratia marcescens; assay: MIC, agar dilution (bacteria); details: Serratia marcescens (B); Caso-Agar, pH 7 (+/−0.2)
Method: (§1) For testing the inhibition of bacteria, the sample was diluted in demineralized water and added in different concentrations to liquid Caso-Agar at 50° C. and is buffered to pH 7 (+/−0.2). […] Each of the solutions is poured into a petri-dish and inoculated with the same amount of bacteria, yeast or mold respectively. The minimum inhibitory concentration (MIC) is the lowest concentration of the sample that inhibits the growth of the respective microorganism where the next lowest dilution fails to inhibit the growth of said microorganism.

[2] = tested on: Escherichia coli; assay: MIC, agar dilution (bacteria); details: Escherichia coli (B); Caso-Agar, pH 7 (+/−0.2)
Method: as §1

[3] = tested on: Staphylococcus aureus; assay: MIC, agar dilution (bacteria); details: Staphylococcus aureus (B); Caso-Agar, pH 7 (+/−0.2)
Method: as §1

[4] = tested on: Klebsiella pneumoniae; assay: MIC, agar dilution (bacteria); details: Klebsiella pneumoniae (B); Caso-Agar, pH 7 (+/−0.2)
Method: as §1

[5] = tested on: Pluralibacter gergoviae; assay: MIC, agar dilution (bacteria); details: Pluralibacter gergoviae (B); Caso-Agar, pH 7 (+/−0.2)
Method: as §1

[6] = tested on: Enterobacter aerogenes; assay: MIC, agar dilution (bacteria); details: Enterobacter aerogenes (B); Caso-Agar, pH 7 (+/−0.2)
Method: as §1

[7] = tested on: Burkholderia cepacia; assay: MIC, agar dilution (bacteria); details: Burkholderia cepacia (B); Caso-Agar, pH 7 (+/−0.2)
Method: as §1

[8] = tested on: Pseudomonas aeruginosa; assay: MIC, agar dilution (bacteria); details: Pseudomonas aeruginosa (B); Caso-Agar, pH 7 (+/−0.2)
Method: as §1

[9] = tested on: Candida albicans; assay: MIC, agar dilution (yeast and mold); details: Candida albicans (Y); Sabouraud-4% Dextrose-Agar, pH 5.6 (+/−0.2)
Method: as §1

[10] = tested on: Candida parapsilosis; assay: MIC, agar dilution (yeast and mold); details: Candida parapsilosis (Y); Sabouraud-4% Dextrose-Agar, pH 5.6 (+/−0.2)
Method: as §1

[11] = tested on: Fusarium solani; assay: MIC, agar dilution (yeast and mold); details: Fusarium solani (M); Sabouraud-4% Dextrose-Agar, pH 5.6 (+/−0.2)
Method: as §1

[12] = tested on: Penicillium minioluteum; assay: MIC, agar dilution (yeast and mold); details: Penicillium minioluteum (M); Sabouraud-4% Dextrose-Agar, pH 5.6 (+/−0.2)
Method: as §1

[13] = tested on: Saccharomyces cerevisiae; assay: MIC, agar dilution (yeast and mold); details: Saccharomyces cerevisiae (Y); Sabouraud-4% Dextrose-Agar, pH 5.6 (+/−0.2)
Method: as §1

[14] = tested on: Aspergillus brasiliensis; assay: MIC, agar dilution (yeast and mold); details: Aspergillus brasiliensis (M); Sabouraud-4% Dextrose-Agar, pH 5.6 (+/−0.2)
Method: as §1

[15] = tested on: Aspergillus terreus; assay: MIC, agar dilution (yeast and mold); details: Aspergillus terreus (M); Sabouraud-4% Dextrose-Agar, pH 5.6 (+/−0.2)
Method: as §1

[16] = tested on: Penicillium funicolosum; assay: MIC, agar dilution (yeast and mold); details: Penicillium funicolosum (M); Sabouraud-4% Dextrose-Agar, pH 5.6 (+/−0.2)
Method: as §1

## Cyclic N-Octanoyl/Decanoyl-N-Methylxylosamide [N-Methyl Xylosamid]
[1]
  MIC of N-Methyl Xylosamid* (70% active) in water: 10000 ppm
[2]
  MIC of N-Methyl Xylosamid* (70% active) in water: 15000 ppm
[3]
  MIC of N-Methyl Xylosamid* (70% active) in water: <500 ppm
[4]
  MIC of N-Methyl Xylosamid* (70% active) in water: 1000 ppm
[5]
  MIC of N-Methyl Xylosamid* (70% active) in water: 15000 ppm
[6]
  MIC of N-Methyl Xylosamid* (70% active) in water: 15000 ppm
[7]
  MIC of N-Methyl Xylosamid* (70% active) in water: 7500 ppm
[8]
  MIC of N-Methyl Xylosamid* (70% active) in water: 10000 ppm
[9]
  MIC of N-Methyl Xylosamid* (70% active) in water: 3000 ppm
[10]
  MIC of N-Methyl Xylosamid* (70% active) in water: 7500 ppm
[11]
  MIC of N-Methyl Xylosamid* (70% active) in water: 1000 ppm
[12]
  MIC of N-Methyl Xylosamid* (70% active) in water: 1500 ppm
[13]
  MIC of N-Methyl Xylosamid* (70% active) in water: 1000 ppm
[14]
  MIC of N-Methyl Xylosamid* (70% active) in water: 2000 ppm
[15]
  MIC of N-Methyl Xylosamid* (70% active) in water: 3000 ppm
[16]
  MIC of N-Methyl Xylosamid* (70% active) in water: 1000 ppm
